The record followed here is patent publication US9771369B2, “Compounds and methods for kinase modulation, and indications therefor” (Plexxikon Inc., priority 2014, dated 2017).

One assay addresses c-Kit kinase (Homo sapiens (Human), UniProt P10721). Kind of assay: c-Kit biochemical assay (AlphaScreen kinase activity). The method, boiled down: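 AlphaScreen: c-Kit phosphorylates biotin-(E4Y)3 (100 nM) at 10 μM ATP, pH 7.2 HEPES buffer with Mg/Mn, 5% DMSO, 1 h room temperature; streptavidin donor and PY30 acceptor beads detect product. Second format: 100 μM ATP, 30 nM biotin-(E4Y)10, pH 7.5. IC50 from 8-point 1:3 dilution curves.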
In general terms: Alpha assays give light when donor and acceptor beads are brought close together.

The subject of assay [1] is BaF3-FL KIT D816V or BaF3-FL KIT V560G/D816V cell line. The assay can be described thus: Cell-based assays of c-Kit mutant kinase activity (cell proliferation, ATPlite). The note with it: at least one of the c-kit cell assays of Example 7. An outline of the steps:
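BaF3 cells dependent on transfected full-length human KIT D816V or V560G/D816V (pCI-Neo, CMV promoter) were seeded at 1×10^4 cells/well and exposed to 8-point 1:3 dilutions from 10 μM top (0.2% DMSO) for three days at 37° C. ATPlite luminescence gave cell number; IC50 from concentration-response.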
(In general: In ATP-based viability assays light output follows the ATP content of the culture.)

c-Kit kinase, sequence (P10721 26-976): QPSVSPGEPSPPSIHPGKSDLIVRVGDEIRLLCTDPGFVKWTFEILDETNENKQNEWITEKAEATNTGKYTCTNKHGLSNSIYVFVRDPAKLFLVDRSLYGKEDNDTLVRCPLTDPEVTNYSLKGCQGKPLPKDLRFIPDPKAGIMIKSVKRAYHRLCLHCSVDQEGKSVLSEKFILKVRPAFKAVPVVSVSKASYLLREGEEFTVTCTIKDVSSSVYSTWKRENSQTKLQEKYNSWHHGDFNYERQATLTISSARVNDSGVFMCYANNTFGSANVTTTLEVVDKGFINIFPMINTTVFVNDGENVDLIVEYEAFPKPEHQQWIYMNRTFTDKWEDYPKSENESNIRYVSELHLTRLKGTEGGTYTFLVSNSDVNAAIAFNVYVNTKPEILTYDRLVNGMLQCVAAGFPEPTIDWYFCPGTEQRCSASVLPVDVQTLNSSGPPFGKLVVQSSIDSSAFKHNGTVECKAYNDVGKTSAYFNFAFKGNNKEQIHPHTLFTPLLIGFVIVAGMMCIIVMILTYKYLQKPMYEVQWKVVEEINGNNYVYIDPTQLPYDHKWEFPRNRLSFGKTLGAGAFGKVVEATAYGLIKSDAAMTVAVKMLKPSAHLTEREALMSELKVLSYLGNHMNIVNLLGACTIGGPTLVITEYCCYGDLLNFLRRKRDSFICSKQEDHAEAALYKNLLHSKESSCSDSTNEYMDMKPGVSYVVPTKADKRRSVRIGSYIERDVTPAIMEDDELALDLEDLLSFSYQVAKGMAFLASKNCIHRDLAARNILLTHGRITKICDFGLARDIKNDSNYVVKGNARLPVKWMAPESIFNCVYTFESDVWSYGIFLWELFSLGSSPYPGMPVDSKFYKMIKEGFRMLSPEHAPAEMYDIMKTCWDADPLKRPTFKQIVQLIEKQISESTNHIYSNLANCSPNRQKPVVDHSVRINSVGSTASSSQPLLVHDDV

As a reminder, the IC50 is the concentration that gives 50% inhibition. A lower IC50 goes with inhibition by little substance. As for `CCOc1ccc(-c2[nH]c(C3(C)CCN(c4ncnc5[nH]c(-c6cnn(C(F)F)c6)cc45)CC3)nc2C)cc1` [P-3170, 6-[1-(difluoromethyl)pyrazol-4-yl]-4-[4-[5-(4-ethoxyphenyl)-4-methyl-1H-imidazol-2-yl]-4-methyl-1-piperidyl]-7H-pyrrolo[2,3-d]pyrimidine], the IC50 on c-Kit kinase was 0.0001 to 1 µM; in assay [1], < 10 µM.
In the same order, the values of `Fc1ccc(-c2cc3c(N4CCC(c5nnc(-c6cccc(OC(F)F)c6)[nH]5)CC4)ncnc3[nH]2)cc1` [P-3204, 4-[4-[5-[3-(difluoromethoxy)phenyl]-4H-1,2,4-triazol-3-yl]-1-piperidyl]-6-(4-fluorophenyl)-7H-pyrrolo[2,3-d]pyrimidine] are 10 to 300 µM and < 10 µM.
On the same counts, the results for `COc1cc(-c2cc3c(N4CCC(c5nnc(-c6ccc(F)cc6)[nH]5)CC4)ncnc3[nH]2)ccn1` [P-3205, 4-[4-[5-(4-fluorophenyl)-4H-1,2,4-triazol-3-yl]-1-piperidyl]-6-(2-methoxy-4-pyridyl)-7H-pyrrolo[2,3-d]pyrimidine] are 10 to 300 µM and < 10 µM.
